“Also recorded” adds a separate entry of the source. Structures can show the parent of a compound that is named as a salt. Where two headings read alike, the source gives them in different places.
Tests used:
[1] = target: recombinant human factor Xa (Homo sapiens, UniProt P00742); assay: Factor Xa inhibition assay (chromogenic substrate S-2765); type: biochemical
bovine thrombin = bovine thrombin (Bos taurus, UniProt P00735); assay: Thrombin inhibition assay (chromogenic substrate S-2238); type: biochemical
[2] = Cytotoxicity assay (XTT) on VERO cells; type: cell-based, African green monkey; details: African green monkey
VERO cells = assay: Cytotoxicity assay (XTT) on VERO cells; type: cell-based, African green monkey; details: 100 µM, 72 h
SARS-CoV-2 [3] = assay: microbe, parasite or virus in culture; type: cell-based; details: for protective effect against SARS-CoV-2 infectivity (in words): preincubation 2 h, crystal violet 72 h after infection; for inhibition at 100 µM: Severe acute respiratory syndrome coronavirus 2, Vero
SARS-CoV-2 [4] = type: cell-based; details: 100 µM, virus coincubated with compound before infecting VERO cells
[5] = Stability in phosphate buffer solution pH 7.4 (RP-HPLC); type: physicochemical; details: for residual, % of the starting concentration: pH 7.4 buffer
[6] = Stability in pooled human serum (RP-HPLC); type: in vitro ADME; details: for residual, % of the starting concentration: human serum
[7] = VERO cells, confluent monolayers (mock-infected), 72 h, XTT, read-out: VERO Cells Toxicity, CC50
[8] = Cheng-Prousoff from IC50, mean of three measurements, read-out: Enzyme Inhibition, Ki, Factor Xa
[9] = Cheng-Prousoff from IC50, mean of three measurements, read-out: Enzyme Inhibition, Ki, Thrombin

Chain of recombinant human factor Xa (P00742 235-488 limits assumed): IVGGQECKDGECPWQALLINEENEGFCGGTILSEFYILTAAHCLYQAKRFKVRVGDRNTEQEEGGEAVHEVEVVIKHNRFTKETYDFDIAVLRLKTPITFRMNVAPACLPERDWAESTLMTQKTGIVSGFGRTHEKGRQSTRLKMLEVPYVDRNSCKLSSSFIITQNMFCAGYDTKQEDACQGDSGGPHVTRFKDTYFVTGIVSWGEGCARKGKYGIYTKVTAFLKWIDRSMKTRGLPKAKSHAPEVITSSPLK
Chain of recombinant human factor Xa (P00742 41-179 partner limits assumed): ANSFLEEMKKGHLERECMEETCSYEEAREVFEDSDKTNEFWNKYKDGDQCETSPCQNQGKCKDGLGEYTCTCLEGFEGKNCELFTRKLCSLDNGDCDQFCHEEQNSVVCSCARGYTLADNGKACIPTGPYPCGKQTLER

[H]/N=C(/N)c1ccc(NCc2nc3cc(C(=O)N(CCC(=O)O)c4ccccn4)ccc3n2C)cc1 [Dabigatran, dabigatran]
inhibition mechanism, fXa ([1]; time-dependent inhibition): reversible inhibitors | inhibition mechanism, thrombin (bovine thrombin): reversible inhibitors | CC50 at 72 h [2, 7]: > 200000 nM | VERO Cells Toxicity, Cytotoxicity at 100 µM (% of nonviable cells) (VERO cells; XTT, mock-infected VERO cells): 18.3 ± 0.8% | protective effect against SARS-CoV-2 infectivity (in words) (SARS-CoV-2 [3]; 100 µM): did not show any effect; also recorded: did not show any ability to reduce the virus infectivity

N=C(N)N1CCC(C(=O)Nc2ccccc2OCc2cc(-c3ccc(Cl)s3)on2)CC1 [Compound 1]
Ki [1, 8]: 2 nM | Ki (bovine thrombin; [9]): 6820 nM | CC50 at 72 h [2]: > 200000 nM | VERO Cells Toxicity, Cytotoxicity at 100 µM (% of nonviable cells) (VERO cells; African green monkey): 20.3 ± 0.9% | protective effect against SARS-CoV-2 infectivity (in words) (SARS-CoV-2 [3]; 100 µM): weak (nonsignificant) protective effect | effect on SARS-CoV-2 infectivity (in words) (SARS-CoV-2 [4]): did decrease viral infectivity

N=C(N)c1ccc2cc(OC(=O)c3ccc(N=C(N)N)cc3)ccc2c1 [Nafamostat, Nafamostat mesylate]
Ki ([1]; incubation time 0 min, read-out: Ki, factor Xa, time-dependent inhibition): 363 ± 6 nM | Ki ([1]; incubation time 15 min, read-out: Ki, factor Xa, time-dependent inhibition): 340 ± 10 nM | Ki ([1]; incubation time 30 min, read-out: Ki, factor Xa, time-dependent inhibition): 225 ± 9 nM | inhibition mechanism, fXa ([1]; time-dependent inhibition): covalent inhibitor | Ki (bovine thrombin; [9]): 10 nM | Ki (bovine thrombin; incubation time 0 min, read-out: Ki, thrombin, time-dependent inhibition): 77 nM | Ki (bovine thrombin; incubation time 15 min, read-out: Ki, thrombin, time-dependent inhibition): 13 nM | Ki (bovine thrombin; incubation time 30 min, read-out: Ki, thrombin, time-dependent inhibition): 5 nM | inhibition mechanism, thrombin (bovine thrombin; time-dependent inhibition): covalent inhibitor | CC50 at 72 h [2, 7]: > 200000 nM | VERO Cells Toxicity, Cytotoxicity at 100 µM (% of nonviable cells) (VERO cells; XTT, mock-infected VERO cells): 16.0 ± 0.8% | residual, % of the starting concentration ([5]; 0 h): 100% | residual, % of the starting concentration ([5]; 0.5 h): 95.1±0.5% | residual, % of the starting concentration ([5]; 1 h): 87.6±1.2% | residual, % of the starting concentration ([5]; 2 h): 84.9±1.0% | residual, % of the starting concentration ([5]; 4 h): 81.6±1.8% | residual, % of the starting concentration ([5]; 8 h): 78.4±2.5% | residual, % of the starting concentration ([5]; 12 h): 73.8±3.0% | residual, % of the starting concentration ([5]; 24 h): 61.4±2.8% | half-life at 100 µM ([5]; phosphate buffer solution (PBS), PBS pH 7.4, 37 °C): ~45 h | residual, % of the starting concentration ([6]; 0 h): 100% | residual, % of the starting concentration ([6]; 0.5 h): 45.9±4.3% | residual, % of the starting concentration ([6]; 1 h): 21.2±5.2% | residual, % of the starting concentration ([6]; 2 h): 5.1±3.3% | half-life at 100 µM ([6]; pooled human serum, 37 °C, read-out: half-life in human pooled blood serum): 0.267 h | protective effect against SARS-CoV-2 infectivity (in words) (SARS-CoV-2 [3]; 100 µM): did not achieve statistically significant activity | protective effect against SARS-CoV-2 infectivity (in words) (SARS-CoV-2 [3]; 100 µM, listed as NAF): weak (nonsignificant) protective effect | cellular monolayer preserved (SARS-CoV-2 [3]; 100 µM, preincubation, crystal violet staining): around 60% | cells with SARS-CoV-2 detected (SARS-CoV-2 [3]; 100 µM, preincubation, immunofluorescence): ~ 25% | activity against SARS-CoV-2 infection over scalar concentrations (in words) (SARS-CoV-2 [3]; 3–100 µM, preincubation): not to have statistically significant activity | inhibition at 100 µM (SARS-CoV-2 [3]; read-out: reduction of viral entry (inhibition)): ~20% | inhibition of SARS-CoV-2 infection (SARS-CoV-2 [3]; whole range of test concentrations 3–100 µM, VERO cells): 15–20%

N=C(N)N1CCC(C(=O)Nc2cccc(OCc3cc(-c4ccc(Cl)s4)on3)c2)CC1 [Compound 3]
Ki [1, 8]: 15 nM | Ki ([1]; Ki, factor Xa, time-dependent inhibition, incubation time 0 min): 20 ± 7 nM | Ki ([1]; Ki, factor Xa, time-dependent inhibition, incubation time 15 min): 17 ± 8 nM | time dependence of inhibition constant (bovine thrombin; preincubation 0, 15, 30 min): did not show any significant time-dependent change in inhibition constant | CC50 at 72 h ([2]; 72 h, XTT, read-out: VERO Cells Toxicity, CC50): 155000 ± 16000 nM | hydrolytic degradation after 24 h ([5]; PBS pH 7.4, 24 h): less than 10% | residual, % of the starting concentration ([5]; 0 h): 100% | residual, % of the starting concentration ([5]; 1 h): 98.8±0.5% | residual, % of the starting concentration ([5]; 4 h): 98.1±1.5% | residual, % of the starting concentration ([5]; 12 h): 97.5±0.5% | residual, % of the starting concentration ([5]; 24 h): 97.9±1.0% | residual, % of the starting concentration ([6]; 0 h): 100% | residual, % of the starting concentration ([6]; 1 h): 95.8±1.0% | residual, % of the starting concentration ([6]; 4 h): 96.6±1.5% | residual, % of the starting concentration ([6]; 12 h): 93.2±2.5% | residual, % of the starting concentration ([6]; 24 h): 96.8±3.0% | hydrolytic degradation after 24 h ([6]; pooled blood human serum, 24 h): less than 10% | protective effect against SARS-CoV-2 infectivity (in words) (SARS-CoV-2 [3]; 100 µM): completely inhibited; also recorded: statistically significant protective effects; also recorded: totally block SARS-CoV-2 entry | inhibition at 100 µM (SARS-CoV-2 [3]; read-out: inhibition of virus infectivity): 100% | inhibitory effects on SARS-CoV-2 infection (SARS-CoV-2 [3]; lower concentrations 3–50 µM, preincubation, VERO cells): ca. 30% | effect on SARS-CoV-2 infectivity (in words) (SARS-CoV-2 [4]): did decrease viral infectivity; also recorded: best candidate against the viral infection

O=C(NC[C@H]1CN(c2ccc(N3CCOCC3=O)cc2)C(=O)O1)c1ccc(Cl)s1 [Rivaroxaban, rivaroxaban]
inhibition mechanism, fXa ([1]; time-dependent inhibition): reversible inhibitors | Ki (bovine thrombin): 12000 nM | inhibition mechanism, thrombin (bovine thrombin; time-dependent inhibition): reversible inhibitors | CC50 at 72 h [2, 7]: > 200000 nM | VERO Cells Toxicity, Cytotoxicity at 100 µM (% of nonviable cells) (VERO cells; XTT, mock-infected VERO cells): 29.4 ± 0.8% | protective effect against SARS-CoV-2 infectivity (in words) (SARS-CoV-2 [3]; 100 µM): did not show any effect; also recorded: did not show any ability to reduce the virus infectivity

CC(C)N1CCC(C(=O)Nc2ccccc2OCc2cc(-c3ccc(Cl)s3)on2)CC1 [Compound 2]
Ki [1, 8]: 0.3 nM | CC50 at 72 h [2]: > 200000 nM | VERO Cells Toxicity, Cytotoxicity at 100 µM (% of nonviable cells) (VERO cells; African green monkey): 7.45 ± 0.24% | protective effect against SARS-CoV-2 infectivity (in words) (SARS-CoV-2 [3]; 100 µM): did not show any ability to reduce the virus infectivity

Source: paper PMC9415951 (Viruses, 2022)
